For data set [1] the following is noted: dissolved upon heating; room temperature; cited from earlier work.
For a further data set, the system named is R6/2 mice. The following applies: cited from earlier work.
In data set [2] the test system is histone acetylation in mouse brain. Nature of the data set: Histone acetylation in brain tissue (central pharmacodynamics). As to conditions: 200 mg/kg sc; positive control.
Procedure: Cortical tissue from the mice was assessed using specific antibodies for increases in acetylation of specific lysine residues on Histones H3 (H3K4, H3K9, H3K14) and H4 (H4K5) as well as global acetylation of H3 (Ac-H3) and H4 (Ac-H4). The acetylation level was normalized to total H3 and H4 expression level. The samples from the rest of the brain were analyzed for terminal 4b levels at the time of sacrifice. […] Mouse brains were harvested, dissected, immediately frozen in liquid nitrogen and stored at −80°C. Mouse brain tissue was homogenized (polytron homogenizer, 20 s) in 2 volumes of histone extraction buffer (1×PBS, 5% Triton X-100 (v/v), 3 mM DTT, 1 mM orthovanadate, 5 mM NaF, 1 mM PMSF, 5 mM Na Butyrate, Roche complete protease inhibitor tablet) and centrifuged at 900 g for 8 min at 4°C. The resulting pellet was washed twice in 1 ml of histone extraction buffer before being re-suspended in 2–3 volumes of 0.2 M HCl. Samples were then vortexed briefly and left to shake vigorously for 3 h at 4°C using a VXR Vibrax 1.5 ml polypropylene tube shaker (IKA). After shaking, samples were centrifuged at 900 g for 8 min at 4°C and the resulting supernatant was retained and neutralized with 0.2 volumes of 1 M NaOH.

`O=C(CCCCCCC(=O)Nc1ccccc1)NO` [SAHA]: the stability in cyclodextrins entry in data set [1] is listed as “stable for seven days”. Besides, the “motor dysfunction (rotarod performance, grip strength)” value in the data set on R6/2 mice (drinking water) is on record as “significant improvement in motor dysfunction”. The maximum tolerated dose with R6/2 mice (in drinking water) is given as 0.67 g/L. For the same compound, the “histone acetylation in cortical tissue” value in data set [2] was “robust enhancement of acetylation of H3K9, H4K5, and total acetylated levels of H3 and H4”.

These data come from PMC3433414, “Oral Administration of the Pimelic Diphenylamide HDAC Inhibitor HDACi 4b Is Unsuitable for Chronic Inhibition of HDAC Activity in the CNS In Vivo” (PLoS ONE, 2012).
